Consider 3 compounds from patent publication US20250333745A1, “METHODS AND COMPOSITIONS FOR TREATMENT OF POLYCYSTIC KIDNEY DISEASE” (Regulus Therapeutics Inc., priority 2016, published 2025).

The nature of data set [1]: Pharmacokinetic profile after single 30 mg/kg subcutaneous dose in wild-type mice. Type of data set: in vivo, mouse. Conditions: single s.c. dose 30 mg/kg. On the procedure: A full pharmacokinetic profile for selected compounds that have passed multiple screening criteria was obtained in C57BL6 mice. In one study, mice are administered a single subcutaneous injection of anti-miR-17 compound at 30 mg/kg. In another study, mice are administered three subcutaneous injections of anti-miR-17 compound at 39 mg/kg, over a two-month period. In each study, liver and kidney samples are collected at 1 hour, 4 hours, 8 hours, 1 day, 4 days, 7 days, 14 days, 28 days, and 56 days following injections.
Pharmacokinetic behavior was assessed by administering a single subcutaneous 30 mg/kg dose of RG4326 or tool anti-miR-17 compound to wild-type mice. At one hour, four hours, eight hours, one day, seven days, 14 days, 28 days and 56 days following the single injection, mice were sacrificed and the mean concentration of anti-miR compound in kidney and liver tissue was measured (ug/g) as described above. The area-under-curve (AUC) was calculated for kidney and liver tissue using the formula ug*h/g, where ug is the amount of oligonucleotide in the tissue, h is the timepoint of tissue collection in hours, and g is the weight of the tissue. The ratio of kidney AUC to liver AUC was determined. Kidney tissue was also processed to the miPSA, to determine target engagement for each compound in this study. PSA AUC was calculated using the formula Log2FC*h, where Log2FC is the displacement value, h is the timepoint of tissue collection in hours. Potency in the kidney at day 7 was calculated using the formula […] where Log2FC is the displacement value as determined by the miPSA, g is the weight of the kidney tissue, and ug is the amount of anti-miR in the kidney tissue at day seven.

The test system of data set [2] is miR-17 targets. Put plainly: miR-17 PD Signature Score in IMCD3 cells (18 genes targeted by miR-17). The class given is cell-based, mouse. As to conditions: 24-hour transfection, relative to mock-transfection. On the procedure: To test the ability of RG4326 to inhibit miR-17 regulation of endogenous targets, miR-17 target gene de-repression was assessed in vitro in several kidney cell types from normal and PKD mouse kidneys. Mouse kidney collecting duct cells (IMCD3) were treated with 0.3 nM, 1.2 nM, 4.7 nM, 18.8 nM, 75 nM, and 300 nM of RG4326 or a control oligonucleotide, RG5124. Additional control groups included untreated cells and mock-transfected cells (cell treated with transfection reagent only). After a 24-hour transfection period, cells were collected and RNA was extracted. The mRNA levels of 18 genes targeted by miR-17 were measured, and averaged to provide a pharmacodynamic signature score (PD Signature Score), represented as Log2 fold-change (Log2FC) relative to mock-transfection.

Data set [3] concerns miR-17 targets. Put plainly: De-repression of miR-17 targets in kidney cell types (PD Signature Score). The class given is cell-based, mouse. The procedure: The ability of RG4326 to de-repress miR-17 targets was also evaluated in additional kidney cell types, derived from the kidneys of both normal and PKD mice. Cells were treated with 30 nM of RG4326 or control oligonucleotide RG5124. After a 24-hour transfection period, cells were collected and RNA was extracted. The mRNA levels of 18 genes targeted by miR-17 were measured, and averaged to provide a pharmacodynamic signature score (PD Signature Score), represented as Log2 fold-change (Log2FC) relative to mock-transfection. […] “P<0.05” indicates a p-value of less than 0.05, as calculated by one-way ANOVA. “NS” indicates a change that is not statistically significant.

Setting [4] is: DBA-PKD, Collecting Ducts, PKD kidney.
Where [5] appears, read: DBA-WT, Collecting Ducts, Normal kidney.
[6] abbreviates: IMCD3, Collecting Ducts, Normal kidney.
[7] abbreviates: LTL-PKD, Proximal Tubules, PKD kidney.
[8] abbreviates: LTL-WT, Proximal Tubules, Normal kidney.
Setting [9] is: M1, Collecting Ducts, Normal kidney.
Setting [10] is: MDCT, Distal Tubules, Normal kidney.

In the case of “5′-CTGCACTGTAAGCACTTTG-3′ (all phosphorothioate, sugars by position and methylation of C not given here; DNA, 2'-MOE and S-cEt sugars) [Tool anti-miR-17, reference compound]”, in data set [1], the “KAUC/LAUC Ratio” value worked out at 1.0, the “Kidney AUC (one hour to 56 days)” value came out at 20711 µg·h/g and the “Liver AUC (one hour to 56 days)” value was 20275 µg·h/g.
As to `COC1C(OP(=O)(S)OC[C@H]2O[C@@H](n3cnc4c(N)ncnc43)C(F)C2OP(=O)(S)OC[C@H]2O[C@@H](n3ccc(N)nc3=O)C(F)C2OP(=O)(S)OC[C@H]2O[C@@H](n3ccc(=O)[nH]c3=O)C(F)C2OP(=O)(S)OC[C@H]2O[C@@H](n3ccc(=O)[nH]c3=O)C(OC)C2OP(=O)(S)OC[C@]23O[C@@H](n4ccc(=O)[nH]c4=O)C(O[C@H]2C)C3OP(=O)(S)OC[C@]23O[C@@H](n4cnc5c(=O)[nH]c(N)nc54)C(O[C@H]2C)C3O)[C@@H](COP(=O)(S)OC2C3O[C@@H](C)[C@]2(COP(=O)(S)OC2C4O[C@@H](C)[C@]2(CO)O[C@H]4n2cnc4c(N)ncnc42)O[C@H]3n2cnc3c(=O)[nH]c(N)nc32)O[C@H]1n1ccc(N)nc1=O` (stereo in doubt) [RG4326, ASGSCMAFCFUFUMUSGS], the “miR-17 PD Signature Score, Mean Log2FC” value with miR-17 targets [2] (0.3 nM) was −0.075 Log2FC; in the data set with miR-17 targets [2] (1.2 nM), −0.067 Log2FC; in the data set with miR-17 targets [2] (4.7 nM), 0.027 Log2FC; in the data set with miR-17 targets [2] (18.8 nM), 0.272 Log2FC; with miR-17 targets [2] (75 nM), 0.369 Log2FC; with miR-17 targets [2] (300 nM), 0.373 Log2FC. Also, the “PD-Signature Score (Log2FC @ 30 nM)” value is listed as 0.52 ± 0.06; p < 0.05 Log2FC in the data set with miR-17 targets [3] (setting [4]); 0.40 ± 0.09; p < 0.05 Log2FC in the data set with miR-17 targets [3] (setting [5]); 0.57 ± 0.06; p < 0.05 Log2FC in the data set with miR-17 targets [3] (setting [6]); 0.39 ± 0.01; p < 0.05 Log2FC with miR-17 targets [3] (setting [7]); 0.35 ± 0.02; p < 0.05 Log2FC in the data set with miR-17 targets [3] (setting [8]); 0.18 ± 0.18; p < 0.05 Log2FC with miR-17 targets [3] (setting [9]). Further, in the data set with miR-17 targets [3] (setting [10]), the “PD-Signature Score (Log2FC @ 30 nM)” value is 0.10 ± 0.01; p < 0.05 Log2FC. Moreover, in data set [1], the “KAUC/LAUC Ratio” value came out at 4.4. Besides, in data set [1], the “Kidney AUC (one hour to 56 days)” value worked out at 5347 µg·h/g. The “Liver AUC (one hour to 56 days)” value in data set [1] was found to be 1206 µg·h/g.
With “ASCSAMAFUFGFCMASCS [RG5124, reference compound]”, the “miR-17 PD Signature Score, Mean Log2FC” value in the data set on miR-17 targets [2] (0.3 nM) is listed as −0.083 Log2FC; in the data set on miR-17 targets [2] (1.2 nM), −0.103 Log2FC; with miR-17 targets [2] (4.7 nM), −0.097 Log2FC; in the data set on miR-17 targets [2] (18.8 nM), −0.108 Log2FC; with miR-17 targets [2] (75 nM), −0.124 Log2FC; with miR-17 targets [2] (300 nM), −0.065 Log2FC. Also, the “PD-Signature Score (Log2FC @ 30 nM)” value in the data set on miR-17 targets [3] (setting [4]) is reported as −0.07 ± 0.02; ns Log2FC; with miR-17 targets [3] (setting [5]), 0.10 ± 0.05; ns Log2FC; in the data set on miR-17 targets [3] (setting [6]), −0.03 ± 0.05; ns Log2FC; in the data set on miR-17 targets [3] (setting [7]), −0.03 ± 0.04; ns Log2FC; with miR-17 targets [3] (setting [8]), −0.04 ± 0.02; ns Log2FC; in the data set with miR-17 targets [3] (setting [9]) it was −0.08 ± 0.02; ns Log2FC. For the same compound, the “PD-Signature Score (Log2FC @ 30 nM)” value with miR-17 targets [3] (setting [10]) is 0.03 ± 0.01; ns Log2FC.
